Experimental data as given in paper PMC4533885, “Mouse Mincle: Characterization as a Model for Human Mincle and Evolutionary Implications” (Molecules, 2015).

Molecular target: T1, mouse mincle (CLEC-4E) CRD, biotin-tagged (Mus musculus, UniProt Q9R0Q8)
T1 construct: gene Clec4e; minimal C-terminal carbohydrate-recognition domain (primers encode ACPLNWKHY... to ...PEISPLD) with C-terminal biotinylation tag GLNDIFEAQKIEWHE kept; immobilized on streptavidin wells
T1 sequence (Q9R0Q8 80-214): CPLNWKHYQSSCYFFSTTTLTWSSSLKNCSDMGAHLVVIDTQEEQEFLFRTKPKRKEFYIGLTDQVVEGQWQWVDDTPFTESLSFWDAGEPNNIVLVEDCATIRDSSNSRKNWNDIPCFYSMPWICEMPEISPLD
Test: solid-phase competition with […]-Man-BSA reporter, CRD immobilized on streptavidin wells
Format: binding

Ki: 540 ± 180 µM
SMILES: OC[C@H]1O[C@H](O[C@H]2O[C@H](CO)[C@@H](O)[C@H](O)[C@H]2O)[C@H](O)[C@@H](O)[C@@H]1O [trehalose]
